Source: publication PMC4542541, “Flexibility and extracellular opening determine the interaction between ligands and insect sulfakinin receptors” (Scientific Reports, 2015)
“Also recorded” adds a separate entry of the source.

What was measured:
[1] = tested on: TcSKR2; test: Receptor activation bioassay, CRE-luciferase reporter in Sf9-TcSKR2 cells; type: cell-based, Tribolium castaneum; parameters: key to peptide marked active on TcSKR2: *: A peptide is active on the sulfakinin receptor (SKR); conditions: for peptide marked active on TcSKR2: 10 μM, one-way ANOVA with Dunnett's posttest vs nsSK and medium control; for activity on TcSKR2 in words: compared to parental peptide nsSK, Sf9 cell-based reporter; for relative activity (% nsSK) TcSKR2: peptide 10 μM, Sf9-TcSKR2 cells transiently transfected with pGL4.29[luc2P/CRE/Hygro], 5 h at 27 °C, Bright-Glo luminescence, activity related to nsSK, mean ± SEM, at least two biological replicates, SEM
Experimental: (§1) Sf9 cells (Spodoptera frugiperda) and Sf9-TcSKR1 and Sf9-TcSKR2 cells generated previously[21] were routinely cultured in SF-900™ II SFM medium (Life Technologies, Merelbeke, Belgium) at 27 °C in darkness. The medium for Sf9-TcSKR1 and Sf9-TcSKR2 was supplemented with 20 μg/ml of puromycin (Life Technologies, Merelbeke, Belgium) to maintain the stable expression of TcSKRs.
(§2) The reporter vector pGL4.29[luc2P/CRE/Hygro] (CRE; Promega, Leiden, the Netherlands) was applied here and it has a cAMP (cyclic adenosine 3′, 5′-cyclic monophosphate) response element upstream the reporter gene luciferase, through which the cAMP signaling regulates the transcription of luciferase proportionally. Thus, the readout of the luminescence corresponds to the extent to which the expressed TcSKR is activated in Sf9 cells. The SK-related peptides (Table 1) were tested at concentrations of 0.1, 1 and 10 μM.
(§3) Sf9, Sf9-TcSKR1 and Sf9-TcSKR2 cells were all transiently transfected with pGL4.29[luc2P/CRE/Hygro] using ESCORT™ IV transfection reagent (Sigma-Aldrich, Bornem, Belgium) following the manufacturer’s instruction. Medium was supplemented with 200 μg/ml hygromycin (Life Technologies, Merelbeke, Belgium) 24 h post-transfection. The transient cells (Sf9-CRE, Sf9-TcSKR1-CRE, Sf9-TcSKR2-CRE) were seeded at 20,000 cells per well in white 96-well plates (Greiner Bio-One, Frickenhausen, Germany). After 12 h, cells had attached to the well bottom and the medium was replaced by fresh medium containing peptide of designated concentrations. Each concentration was tested in three replicates and the entire assay was repeated at least twice. Two kinds of negative control were included. […] Second, Sf9-CRE cells were used as a negative control to eliminate the potential internal factors that were activated by peptide samples. Cells were incubated with a peptide for 5 h at 27 °C and then Bright-Glo™ luciferase assay (Promega, Leiden, the Netherlands) was carried out according to the manufacturer’s instruction. Light emission, resulting from the luciferase activity was measured for 10 seconds per well using an Infinite® 200 PRO microplate reader (Tecan, Mechelen, Belgium).
(§4) In the receptor activation bioassay, the activity of a peptide on TcSKR was represented by the increased luminescence units, calculated with the following formula: activitypeptide = (luminescencepeptide – luminescencemedium)/luminescencemedium × 100. The activity of SK-related peptide was compared to that of nsSK and medium control by one-way analysis of variance with the Dunnett’s posttest in GraphPad Prism version 5.00 (GraphPad Software, La Jolla, CA). The activity of a SK-related peptide was also related to the activity of nsSK as a percentage value, calculated with the formula: relative activity of peptide (% nsSK) = activitypeptide/activitynsSK × 100.

[2] = tested on: TcSKR1; test: Receptor activation bioassay, CRE-luciferase reporter in Sf9-TcSKR1 cells; type: cell-based, Tribolium castaneum; parameters: key to peptide marked active on TcSKR1: *: A peptide is active on the sulfakinin receptor (SKR); conditions: for peptide marked active on TcSKR1: 10 μM, one-way ANOVA with Dunnett's posttest vs nsSK and medium control; for activity on TcSKR1 in words: compared to parental peptide nsSK, Sf9 cell-based reporter; for relative activity (% nsSK) TcSKR1: peptide 10 μM, Sf9-TcSKR1 cells transiently transfected with pGL4.29[luc2P/CRE/Hygro], 5 h at 27 °C, Bright-Glo luminescence, activity related to nsSK, mean ± SEM, at least two biological replicates, SEM
Experimental: as §1, §2, §3, §4

[3] = tested on: TcSKR2; conditions: previous experiments; cited from earlier work
Excerpt: As a satiety factor, insect SK signaling provides insights into the development of new pest control strategies. […] This lead to a hypothesis that sSK and nsSK interact with the two TcSKRs differently. Therefore, understanding the interaction of ligand and receptor will promote the ...

| Substance | peptide marked active on TcSKR2 [1] | activity on TcSKR2 in words [1] | relative activity (% nsSK) TcSKR2 [1] | peptide marked active on TcSKR1 [2] | activity on TcSKR1 in words [2] | relative activity (% nsSK) TcSKR1 [2] | potency of sSK relative to nsSK to activate TcSKR2 [3] |
| --- | --- | --- | --- | --- | --- | --- | --- |
| DDY(SO3H)GHMRF-NH2 [Peptide 1658, sulfated SK-related peptide DDY(SO3H)GHMRF-NH2] | * | much more active than nsSK; also recorded: retention of activity | 516.8 ± 50.6 % nsSK | * | retention of activity | 64.8 ± 8.4 % nsSK |  |
| DDYGHMRF-NH2 [Peptide 2009, truncated nsSK, DDYGHMRF-NH2] |  |  | 1.2 ± 13.7 % nsSK |  |  | 7.8 ± 11.8 % nsSK |  |
| DYGHMRF-NH2 [Peptide 2010, truncated nsSK, DYGHMRF-NH2] |  |  | 8.6 ± 9.1 % nsSK |  |  | 28.1 ± 15.6 % nsSK |  |
| EADY(SO3H)GHNleRF-NH2 [Peptide 1591-1, sulfated SK-related peptide EADY(SO3H)GHNleRF-NH2] | * | much more active than nsSK; also recorded: retention of activity | 113.7 ± 60.5 % nsSK | * | retention of activity | 82.6 ± 2.0 % nsSK |  |
| FDDAGHMRF-NH2 [Peptide 2008, alanine-substituted nsSK, …-NH2] |  | inactive | 21.5 ± 10.7 % nsSK |  | inactive | 5.3 ± 1.5 % nsSK |  |
| FDDY(SO3H)GHMRF-NH2 [sSK, sulfated sulfakinin peptide FDDY(SO3H)GHMRF-NH2] |  |  |  |  |  |  | 1,000–10,000 times |
| FDDYAHMRF-NH2 [Peptide 2007, alanine-substituted nsSK, …-NH2] |  |  | 8.5 ± 5.3 % nsSK |  | kept the activity on TcSKR1 to some extent | 55.0 ± 7.1 % nsSK |  |
| FDDYGAMRF-NH2 [Peptide 2006, alanine-substituted nsSK, …-NH2] |  | inactive | 4.0 ± 9.9 % nsSK |  | inactive | 0.5 ± 0.7 % nsSK |  |
| FDDYGHARF-NH2 [Peptide 2005, alanine-substituted nsSK, …-NH2] |  | inactive | 11.9 ± 2.7 % nsSK |  | inactive | −0.8 ± 4.4 % nsSK |  |
| FDDYGHMAF-NH2 [Peptide 2004, alanine-substituted nsSK, …-NH2] |  | inactive | 18.7 ± 10.2 % nsSK |  | inactive | 58.0 ± 22.0 % nsSK |  |
| FDDYGHMRA-NH2 [Peptide 2003, alanine-substituted nsSK, …-NH2] |  | inactive | −3.5 ± 5.9 % nsSK |  | inactive | −2.0 ± 3.4 % nsSK |  |
| FDDYGHMRF-NH2 [nsSK, nonsulfated sulfakinin peptide …-NH2, parental peptide of the series, reference compound] | * |  | 100.0 ± 0.0 % nsSK | * |  | 100.0 ± 0.0 % nsSK |  |
| GHMRF-NH2 [Peptide 2053, truncated nsSK, GHMRF-NH2] |  |  | −4.8 ± 0.1 % nsSK |  |  | 0.6 ± 0.1 % nsSK |  |
| HMRF-NH2 [Peptide 2052, truncated nsSK, HMRF-NH2] |  |  | 1.8 ± 0.1 % nsSK |  |  | 6.8 ± 0.2 % nsSK |  |
| SDDY(SO3H)GHMRF-NH2 [Peptide 1835, sulfated SK-related peptide SDDY(SO3H)GHMRF-NH2] | * | much more active than nsSK; also recorded: retention of activity | 645.7 ± 126.6 % nsSK | * | retention of activity | 76.5 ± 7.6 % nsSK |  |
| YGHMRF-NH2 [Peptide 2011, truncated nsSK, YGHMRF-NH2] |  |  | 11.7 ± 13.5 % nsSK |  |  | 2.8 ± 2.5 % nsSK |  |
